The values below come from BindingDB's records for doi:10.1021/jm801395v (Universita Di Siena, 2009).

Holding throughout (assay): Reverse Transcriptase Assay
For experiment [1], the target named is T1, Gag-Pol polyprotein [588-1027,Y769I]/[588-1147,Y769I] (Human immunodeficiency virus 1, UniProt P04585, Y769I).
T1 construct: 588-1027; 588-1147
As to conditions: pH 7.5; 37 °C. As to the method:
(§1) The inhibition of the RNA-dependent DNA polymerase activity of the HIV-1 reverse transcriptase enzyme was measured using a primer extension assay. The substrate-incorporated radioactivity was quantitated by scintillation counting.

Experiment [2] addresses T2, Gag-Pol polyprotein [588-1027] (Human immunodeficiency virus type 1 group M subtype B (isolate HXB2), UniProt P04585).
T2 construct: 588-1027
As to conditions: pH 7.5; 37 °C. As to the method: as §1

Experiment [3] addresses T3, Gag-Pol polyprotein [588-1027,Y776L]/[588-1147,Y776L] (Human immunodeficiency virus 1, UniProt P04585, Y776L).
T3 construct: 588-1027; 588-1147
As to the method: as §1

Each structure is given as a SMILES string. A value given as a limit tells only on which side of the number the result lay.

On to `CCC1(c2ccc(COc3cccc(Cl)c3)cc2)Oc2cccnc2-n2cccc2C1=O` (stereo not given) [8-[4-(3-chlorophenoxymethyl)phenyl]-8-ethyl-9-oxa-2,14-diazatricyclo[8.4.0.0^{2,6}]tetradeca-1(14),3,5,10,12-pentaen-7-one], for which the Ki (usually the equilibrium dissociation constant of an inhibitor or competing ligand from its target) in experiment [1] was < 10 µM. For `CCC1(c2ccc(COc3cccc(Cl)c3)cc2)Oc2ccccc2-n2cccc2C1=O` (stereo not given) [8-[4-(3-chlorophenoxymethyl)phenyl]-8-ethyl-9-oxa-2-azatricyclo[8.4.0.0^{2,6}]tetradeca-1(14),3,5,10,12-pentaen-7-one], the Ki is < 10 µM in experiment [1] and 0.1 µM in experiment [2]. Regarding `CCC1(c2ccc(COc3ccccc3)cc2)Oc2cccnc2-n2cccc2C1=O` (stereo not given) [8-ethyl-8-[4-(phenoxymethyl)phenyl]-9-oxa-2,14-diazatricyclo[8.4.0.0^{2,6}]tetradeca-1(14),3,5,10,12-pentaen-7-one], the Ki in experiment [1] and in experiment [3] was < 10 µM each time.
